Measurements reported in patent US11077199B2, “Albumin binding peptide conjugates and methods thereof” (Massachusetts Institute of Technology, priority 2017, dated 2021).

Key:
[1] = tested on: CD44hi H-2Db gp100 tetramer+ CD8+ T cells; assay: Immunization with ABP-antigen constructs, tetramer staining of peripheral blood; assay type: in vivo, C57BL6/J mice; conditions: for percentage CD44hi tetramer+ of total live CD8+ T cells: 5 nmol with 25 ug c-di-GMP adjuvant, prime day 0, boost day 14, peripheral blood day 21, mean response
From the text: To test whether these albumin-binding peptides could enhance vaccination, a model melanoma antigen called gp100 was utilized. Vaccination against gp100 has shown significant preclinical activity (van Stipdonk, M. J. B. et al. Design of agonistic altered peptides for the robust induction of CTL directed towards H-2Db in complex with the melanoma-associated epitope gp100. Cancer research 69, 7784-7792, doi:10.1158/0008-5472.CAN-09-1724 (2009)) and has also been used clinically (Schwartzentruber, D. J. et al. gp100 Peptide Vaccine and Interleukin-2 in Patients with Advanced Melanoma. New England Journal of Medicine 364, 2119-2127, doi:10.1056/NEJMoa1012863 (2011)). An altered peptide ligand form of gp100 called EGP (sequence
To test the immunogenicity of ABP-modified peptides, C57BL6/J mice (Jackson Laboratories) were immunized with 5 nmol either ABP-G4S-EGP, ABP-PEG2000-EGP, or unmodified EGP peptide. Vaccines were formulated with 25 ug c-di-GMP (Invivogen) for adjuvant in 100 uL total volume (with sterile saline as diluent). Mice were primed on day 0, boosted on day 14, and tetramer staining was performed on day 21 to assess T cell priming in peripheral blood. (FIG. 5). Briefly, blood was isolated retro-orbitally, subjected to lysis to remove red blood cells, and incubated with tetramer (H-2Db gp100, MBL) at room temperature for 30 minutes, followed by surface staining for CD8 and CD44. DAPI was included as a viability marker, and cells were run on the LSR Fortessa (BD Biosciences). Responses were quantified as the percentage CD44^hi tetramer+ of total live CD8+ T cells. […] (FIG. 6).

[2] = biological target: T1, MHC (H2-Db) (Mus musculus, UniProt P01899); conditions: H2-Db epitope; van Stipdonk et al. 2009; cited from earlier work
T1 sequence (P01899 25-362): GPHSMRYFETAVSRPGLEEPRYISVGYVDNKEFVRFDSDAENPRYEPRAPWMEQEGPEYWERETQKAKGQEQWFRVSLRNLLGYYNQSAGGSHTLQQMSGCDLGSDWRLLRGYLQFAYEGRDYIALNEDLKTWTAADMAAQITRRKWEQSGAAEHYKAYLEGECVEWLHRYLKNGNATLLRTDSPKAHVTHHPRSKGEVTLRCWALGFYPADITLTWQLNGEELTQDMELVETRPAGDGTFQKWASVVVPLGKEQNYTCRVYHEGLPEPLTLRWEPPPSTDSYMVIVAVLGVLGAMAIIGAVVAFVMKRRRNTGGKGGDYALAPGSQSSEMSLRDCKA
T1 sequence (P01887 21-119 partner): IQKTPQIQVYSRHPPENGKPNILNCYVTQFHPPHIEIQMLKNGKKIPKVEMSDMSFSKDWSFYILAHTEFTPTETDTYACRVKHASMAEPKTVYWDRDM

Sequence	percentage CD44hi tetramer+ of total live CD8+ T cells [1] [%]	response compared with background in unimmunized mice ([1]; day 21 tetramer staining, background 0.82%)	affinity for MHC relative to native form (EGS) [2]	fold higher response than unmodified peptide ([1]; CD44hi tetramer+ of live CD8+ T cells, day 21, relative to unmodified EGP peptide)
AVGALEGPRNQDWLGVPRQL (Synthetic EGP long peptide) [unmodified EGP peptide, altered peptide ligand form of melanoma antigen gp100]	1.45	not statistically different from background	enhanced affinity for MHC over the native form	–
DICLPRWGCLWGGGGSAVGALEGPRNQDWLGVPRQL [ABP-G4S-EGP]	5.56	–	–	approximately 4 fold
